Values joined by “and” are separate entries in the source; they are usually repeats but may differ in a detail not shown here. Equal values may be shown once.
Test: UV absorption properties (λmax, molar extinction coefficient ε, efficiency E 1%, 1 cm)
Assay type: physicochemical
[1] = values in order of the λmax values
[2] = Table 7, values in order of the λmax values
[3] = Table 6A, N-isobutyl-C3-benzoyl compounds

| UV λmax | ε (molar extinction coefficient) [1] | SMILES | further results |
| --- | --- | --- | --- |
| 304 nm | 34588 M⁻¹ cm⁻¹ | Cc1ccc(S(=O)(=O)NC(=O)C2=CN(C(C)(C)C)CCC2(C)C)cc1 [Compound 186, 1-(tert-butyl)-4,4-dimethyl-N-tosyl-1,4,5,6-tetrahydropyridine-3-carboxamide] |  |
|  |  | COc1ccc(C(=O)C2=CN(CC(C)C)CCC2(C)C)cc1 [drawing 52] | λmax (Table 2, compounds 11-13): 319 nm |
| 253 nm | 11371 M⁻¹ cm⁻¹ | Cc1cc(N2C=CC(C)(C)C=C2)n(C)n1 [Compound 152, 1-(1,3-dimethyl-1H-pyrazol-5-yl)-4,4-dimethyl-1,4-dihydropyridine] |  |
|  |  | CC(=O)CC1=CC(C)(C)CCN1CC(C)C | E (1%, 1 cm) (Table 12): 675; ε (Table 12): 16000 M⁻¹ cm⁻¹; λmax (Table 12, 2-substituted compounds): 314 nm |
| 278 nm | 22550 M⁻¹ cm⁻¹ | COc1ccc(N2C=CC(C)(C)CC2)cc1 [Compound 51, 1-(4-methoxyphenyl)-4,4-dimethyl-1,2,3,4-tetrahydropyridine] |  |
| 291 nm |  | CCC(=O)C1=CN(CC(C)C)C(=O)CC1(C)C [Compound 64, 1-isobutyl-4,4-dimethyl-5-propionyl-3,4-dihydropyridin-2(1H)-one] |  |
| 320 nm | 22000 M⁻¹ cm⁻¹ | CC(C)CN1C=C(C(=O)c2ccc3c(c2)CCO3)C(C)(C)CC1 [Compound 18, (2,3-dihydrobenzofuran-5-yl)(1-isobutyl-4,4-dimethyl-1,4,5,6-tetrahydropyridin-3-yl)methanone] |  |
| 308 nm |  | Cc1ccc(NC(=O)C2=CN(C(C)(C)C)CCC2(C)C)cc1NC(=O)C1=CN(C(C)(C)C)CCC1(C)C [Compound 184, N,N′-(4-methyl-1,3-phenylene)bis(1-(tert-butyl)-4,4-dimethyl-1,4,5,6-tetrahydropyridine-3-carboxamide)] |  |
| 314 nm and 357 nm | 23250 M⁻¹ cm⁻¹ and 24050 M⁻¹ cm⁻¹ | CC(C)CN1C=C(C(=O)CCC=Cc2ccc(COc3ccc(C(=O)CC(=O)c4ccc(C(C)(C)C)cc4)cc3)cc2)C(C)(C)CC1 (racemic) [Compound 10, 1-(4-(tert-butyl)phenyl)-3-(4-((4-(5-(1-isobutyl-4,4-dimethyl-1,4,5,6-tetrahydropyridin-3-yl)-5-oxopent-1-en-1-yl)benzyl)oxy)phenyl)propane-1,3-dione] |  |
|  |  | C=C(C)C(=O)C1=CN(CC(C)C)CCC1(C)C [drawing 116] | λmax (Table 7, unsaturated compounds): 310 nm; E (1%, 1 cm) [2]: 806; ε [2]: 18950 M⁻¹ cm⁻¹ |
| 313 nm | 55779 M⁻¹ cm⁻¹ | CC1(C)CCN(C(C)(C)C)C=C1C(=O)Nc1cccc(NC(=O)C2=CN(C(C)(C)C)CCC2(C)C)c1 [Compound 188, N,N′-(1,3-phenylene)bis(1-(tert-butyl)-4,4-dimethyl-1,4,5,6-tetrahydropyridine-3-carboxamide)] |  |
|  |  | COc1ccc(C(=O)C(CCCCCC(=O)C2=CN(CC(C)C)CCC2(C)C)C(=O)c2ccc(C(C)(C)C)cc2)cc1 (stereo not drawn) [drawing 45] | λmax (Table 1, covalently coupled compounds): 306 nm |
| 253 nm | 10016 M⁻¹ cm⁻¹ | Cc1nn(C)c(N2C=CC(C)(C)C=C2)c1C(=O)C(F)(F)F [Compound 200, 1-(5-(4,4-dimethylpyridin-1(4H)-yl)-1,3-dimethyl-1 H-pyrazol-4-yl)-2,2,2-trifluoroethanone] |  |
| 311 nm |  | C=C/C=C/CC(=O)C1=CN(CC(C)C)CCC1(C)C [Compound 28, (E)-1-(1-isobutyl-4,4-dimethyl-1,4,5,6-tetrahydropyridin-3-yl)hexa-3,5-dien-1-one] |  |
| 312 nm | 15174 M⁻¹ cm⁻¹ | CN(C(=O)C1=CN(C(C)(C)C)CCC1(C)C)c1ccccc1 [Compound 180, 1-(tert-butyl)-N,4,4-trimethyl-N-phenyl-1,4,5,6-tetrahydropyridine-3-carboxamide] |  |
|  |  | CC(C)CN1C=C(C(=O)c2ccc3c(c2)CCO3)C(C)(C)CC1 [drawing 85] | E (1%, 1 cm) (Table 6A): 831; ε (Table 6A): 22000 M⁻¹ cm⁻¹; λmax [3]: 320 nm |
|  |  | CC(C)CN1C=C(C(=O)c2ccc(C(=O)c3ccccc3)cc2)C(C)(C)CC1 [drawing 90] | E (1%, 1 cm) (Table 6A): 200; ε (Table 6A): 7500 M⁻¹ cm⁻¹; λmax [3]: 295 nm |
| 325 nm |  | CC1(C)CCN(c2cccc3ccccc23)C=C1C(=O)C(F)(F)F [Compound 198, 1-(4,4-dimethyl-1-(naphthalen-1-yl)-1,4,5,6-tetrahydropyridine-3-yl)-2,2,2-trifluoroethanone] |  |
| 366 nm |  | CCC(=O)C1=CN(CC(C)C)C=CC1(C)C [Compound 65, 1-(1-isobutyl-4,4-dimethyl-1,4-dihydropyridin-3-yl)propan-1-one] |  |
| 337 nm | 43513 M⁻¹ cm⁻¹ | Cc1ccc(N2C=C(C(=O)C(F)(F)F)C(C)(C)CC2)cc1 [Compound 197, 1-(4,4-dimethyl-1-(p-tolyl)-1,4,5,6-tetrahydropyridin-3-yl)-2,2,2-trifluoroethanone] |  |

| UV λmax | ε (molar extinction coefficient) [1] | SMILES | further results |
| --- | --- | --- | --- |
|  |  | CC(C)CN1C=C(S(=O)(=O)c2ccccc2)C(C)(C)CC1 [drawing 173] | E (1%, 1 cm) (Table 13A): 359; ε (Table 13A): 11000 M⁻¹ cm⁻¹; λmax (Table 13A, miscellaneous compounds): 285 nm |
| 323 nm | 33948 M⁻¹ cm⁻¹ | Cc1ccc(N2C=C(C(=O)Nc3ccccc3)C(C)(C)CC2)cc1 [Compound 192, 4,4-dimethyl-N-phenyl-1-(p-tolyl)-1,4,5,6-tetrahydropyridine-3-carboxamide] |  |
| 338 nm | 8000 M⁻¹ cm⁻¹ | CCC(=O)C1=C(c2ccccc2)N(CC(C)C)CCC1(C)C [Compound 58, 1-(1-isobutyl-4,4-dimethyl-2-phenyl-1,4,5,6-tetrahydropyridin-3-yl)propan-1-one] |  |
|  |  | C=C(C)CC(=O)C1=CN(CC(C)C)CCC1(C)C [drawing 108] | λmax (Table 7, unsaturated compounds): 306 nm; E (1%, 1 cm) [2]: 574; ε [2]: 14500 M⁻¹ cm⁻¹ |
| 313 nm | 9500 M⁻¹ cm⁻¹ | COc1ccc(C(=O)C2=CN(CC(C)C)CCC2(C)C)c(OC)c1 [Compound 24, 2,4-dimethoxyphenyl(1-isobutyl-4,4-dimethyl-1,4,5,6-tetrahydropyridin-3-yl)methanone] |  |
| 320 nm | 20000 M⁻¹ cm⁻¹ | CC(C)CN1C=C(C(=O)c2ccc(C(=O)C3=CN(CC(C)C)CCC3(C)C)cc2)C(C)(C)CC1 [Compound 21, 1,4-phenylenebis ((1-isobutyl-4,4-dimethyl-1,4,5,6-tetrahydropyridin-3-yl)methanone)] |  |
| 328 nm | 52737 M⁻¹ cm⁻¹ | Cc1ccc(N2C=C(C(=O)CCCCCCCCC(=O)C3=CN(c4ccc(C)cc4)CCC3(C)C)C(C)(C)CC2)cc1 [Compound 172, 1,10-bis(4,4-dimethyl-1-(p-tolyl)-1,4,5,6-tetrahydropyridin-3-yl)decane-1,10-dione] | ε value (unit inferred): > 52000 M⁻¹ cm⁻¹ |
| 310 nm | 18950 M⁻¹ cm⁻¹ | C=C(C)C(=O)C1=CN(CC(C)C)CCC1(C)C [Compound 36, 1-(1-Isobutyl-4,4-dimethyl-1,4,5,6-tetrahydropyridin-3-yl)methylprop-2-en-1-one] |  |
| 305 nm | 15425 M⁻¹ cm⁻¹ | CC1(C)CCN(C(C)(C)C)C=C1C(=O)C1=CN(C(C)(C)C)CCC1(C)C [Compound 167, bis(1-(tert-butyl)-4,4-dimethyl-1,4,5,6-tetrahydropyridin-3-yl)methanone] |  |
|  |  | CC1(C)C=CN(c2ccccc2)C=C1 [drawing 125] | E (1%, 1 cm) (Table 8a): 866; ε (Table 8a): 16000 M⁻¹ cm⁻¹; λmax (Table 8a, N-phenyl compounds): 285 nm |
| 363 nm | 20881 M⁻¹ cm⁻¹ | CC1(C)CCN(C(C)(C)C)C=C1C(=S)Nc1ccccc1 [Compound 182, 1-(tert-butyl)-4,4-dimethyl-N-phenyl-1,4,5,6-tetrahydropyridine-3-carbothioamide] |  |
| 327 nm | 34608 M⁻¹ cm⁻¹ | CCC(=O)C1=CN(c2ccc(C)cc2)CCC1(C)C [Compound 176, 1-(4,4-dimethyl-1-(p-tolyl)-1,4,5,6-tetrahydropyridin-3-yl)propan-1-one] |  |
|  |  | CC1(C)C=CN(c2ccccc2)CC1 [drawing 121] | E (1%, 1 cm) (Table 8a): 1205; ε (Table 8a): 22550 M⁻¹ cm⁻¹; λmax (Table 8a, N-phenyl compounds): 278 nm |
| 288 nm | 22531 M⁻¹ cm⁻¹ | CCCCNC(=O)C1=CN(C(C)(C)C)CCC1(C)C [Compound 183, 1-(tert-butyl)-N-butyl-4,4-dimethyl-1,4,5,6-tetrahydropyridine-3-carboxamide] |  |
| 332 nm | 30675 M⁻¹ cm⁻¹ | COc1ccc(N2C=C(C(=O)C3CCCC3=O)C(C)(C)CC2)cc1 (stereo not drawn) [Compound 171, 2-(1-(4-methoxyphenyl)-4,4-dimethyl-1,4,5,6-tetrahydropyridine-3-carbonyl)cyclopentanone] |  |
|  |  | C=CCC(=O)C1=CN(CC(C)C)CCC1(C)C [drawing 110] | λmax (Table 7, unsaturated compounds): 310 nm; E (1%, 1 cm) [2]: 1102; ε [2]: 27000 M⁻¹ cm⁻¹ |
| 310 nm |  | C=CCC(=O)C1=CN(CC(C)C)CCC1(C)C [Compound 29, 1-(1-isobutyl-4,4-dimethyl-1,4,5,6-tetrahydropyridin-3-yl)but-3-en-1-one] |  |
| 310 nm and 314 nm | 19000 M⁻¹ cm⁻¹ | CC(C)=CC(=O)C1=CN(CC(C)C)CCC1(C)C [Compound 26, 1-(1-isobutyl-4,4-dimethyl-1,4,5,6-tetrahydropyridin-3-yl)-3-methylbut-2-en-1-one] |  |
| 324 nm | 35759 M⁻¹ cm⁻¹ | CC1(C)CCN(c2ccc(C(C)(C)C)cc2)C=C1C(=O)Nc1ccccc1 [Compound 193, 1-(4-(tert-butyl)phenyl)-4,4-dimethyl-N-phenyl-1,4,5,6-tetrahydropyridine-3-carboxamide] |  |
| 308 nm |  | CC(C)CN1C=C(C(=O)CCC(=O)O)C(C)(C)CC1 [Compound 70, 4-(1-isobutyl-4,4-dimethyl-1,4,5,6-tetrahydropyridin-3-yl)-4-oxobutanoic acid] |  |

Reference: patent publication US10519111B2, “UV absorbing compounds, compositions comprising same and uses thereof” (CORAL SUNSCREEN PTY LTD, priority 2013, dated 2019)
